Assay results: BigSolDB 2.1

Oc1ccc(Cl)c2cccnc12
solubility (mole fraction) (in 1,4-dioxane, 288.15 K): 0.0556 | solubility (mole fraction) (in 1,4-dioxane, 293.15 K): 0.064 | solubility (mole fraction) (in 1,4-dioxane, 298.15 K): 0.0751 | solubility (mole fraction) (in 1,4-dioxane, 303.15 K): 0.0875 | solubility (mole fraction) (in 1,4-dioxane, 308.15 K): 0.102 | solubility (mole fraction) (in 1,4-dioxane, 313.15 K): 0.119 | solubility (mole fraction) (in 1,4-dioxane, 318.15 K): 0.14 | solubility (mole fraction) (in 1,4-dioxane, 323.15 K): 0.161 | solubility (mole fraction) (in 2-ethoxyethanol, 278.15 K): 0.0161 | solubility (mole fraction) (in 2-ethoxyethanol, 283.15 K): 0.0194 | solubility (mole fraction) (in 2-ethoxyethanol, 288.15 K): 0.0249 | solubility (mole fraction) (in 2-ethoxyethanol, 293.15 K): 0.0284 | solubility (mole fraction) (in 2-ethoxyethanol, 298.15 K): 0.0333 | solubility (mole fraction) (in 2-ethoxyethanol, 303.15 K): 0.0398 | solubility (mole fraction) (in 2-ethoxyethanol, 308.15 K): 0.0466 | solubility (mole fraction) (in 2-ethoxyethanol, 313.15 K): 0.055 | solubility (mole fraction) (in 2-ethoxyethanol, 318.15 K): 0.0646 | solubility (mole fraction) (in 2-ethoxyethanol, 323.15 K): 0.0768 | solubility (mole fraction) (in ethanol, 278.15 K): 0.00253 | solubility (mole fraction) (in ethanol, 283.15 K): 0.00304 | solubility (mole fraction) (in ethanol, 288.15 K): 0.00376 | solubility (mole fraction) (in ethanol, 293.15 K): 0.00468 | solubility (mole fraction) (in ethanol, 298.15 K): 0.00564 | solubility (mole fraction) (in ethanol, 303.15 K): 0.00694 | solubility (mole fraction) (in ethanol, 308.15 K): 0.00839 | solubility (mole fraction) (in ethanol, 313.15 K): 0.0101 | solubility (mole fraction) (in ethanol, 318.15 K): 0.0121 | solubility (mole fraction) (in ethanol, 323.15 K): 0.0145 | solubility (mole fraction) (in n-propyl acetate, 278.15 K): 0.015 | solubility (mole fraction) (in n-propyl acetate, 283.15 K): 0.0178 | solubility (mole fraction) (in n-propyl acetate, 288.15 K): 0.0213 | solubility (mole fraction) (in n-propyl acetate, 293.15 K): 0.0251 | solubility (mole fraction) (in n-propyl acetate, 298.15 K): 0.0297 | solubility (mole fraction) (in n-propyl acetate, 303.15 K): 0.0355 | solubility (mole fraction) (in n-propyl acetate, 308.15 K): 0.0416 | solubility (mole fraction) (in n-propyl acetate, 313.15 K): 0.0495 | solubility (mole fraction) (in n-propyl acetate, 318.15 K): 0.0587 | solubility (mole fraction) (in n-propyl acetate, 323.15 K): 0.0696
